Tests used:
human orexin 2 receptor = human orexin 2 receptor (Homo sapiens (Human), UniProt O43614); test: Human orexin 2 receptor radioligand binding ([3H]-EMPA); conditions: HEK293 stably expressing human orexin 2 receptor; [3H]-EMPA; apparent Ki; read-out: hOX2 Ki
Experimental: After centrifugation (2K×G, 5 min at 4° C.), the supernatant was aspirated and the pellets frozen and stored at −80° C. […] Each cell pellet from a 15 cm plate was resuspended in 10 mL, stored on ice, and homogenized for 45 sec just prior to addition to the reactions. Competition binding experiments in 96 well polypropylene plates were performed using [^3H]-EMPA (Moraveck Corporation, specific activity=29.6 Ci/mmol), diluted to a 5 nM concentration in PBS (2 nM final concentration). […] The final concentration of DMSO in the reactions is equal to or less than 0.1%. Total and nonspecific binding was determined in the absence and presence of […]. The total volume of each reaction is 200 μL (20 μL of diluted compounds, 80 μL of [^3H]-EMPA diluted in PBS and 100 μL of the cell suspension).
The plates were washed 3 times by aspirating 30 ml PBS through the plates. Plates were dried in 55° C. oven for 60 min, scintillation fluid was added, and the radioactivity was counted on a Topcount (Packard).

rat orexin 1 receptor = rat orexin 1 receptor (Rattus norvegicus, UniProt P56718); test: Rat orexin 1 receptor radioligand binding; conditions: HEK293 cells stably expressing rat orexin 1 receptor; apparent Ki; read-out: rOX1 Ki
Experimental: After centrifugation (2K×G, 5 min at 4° C.), the supernatant was aspirated and the pellets frozen and stored at −80° C. […] Each cell pellet from a 15 cm plate was resuspended in 10 mL, stored on ice, and homogenized for 45 sec prior to addition to the reactions. Competition binding experiments in 96 well polypropylene plates were performed using [^3H]-(1-(5-(2-fluoro-phenyl)-2-methyl-thiazol-4-yl)-1-((S)-2-(5-phenyl-(1,3,4)oxadiazol-2-ylmethyl)-pyrrolidin-1-yl)-methanone) (Moraveck Corporation, specific activity=35.3 Ci/mmol), diluted to a 10 nM concentration in PBS (4 nM final). […] The final concentration of DMSO in the reactions is equal to or less than 0.1%. Total and nonspecific binding was determined in the absence and presence of 10 μM almorexant. The total volume of each reaction is 200 μL (20 μL of diluted compounds, 80 μL of [3H]-(1-(5-(2-fluoro-phenyl)-2-methyl-thiazol-4-yl)-1-((S)-2-(5-phenyl-(1,3,4)oxadiazol-2-ylmethyl)-pyrrolidin-1-yl)-methanone) diluted in PBS and 100 μL of the cell suspension). […] The plates were washed 3 times by aspirating 30 ml PBS through the plates. Plates were dried in 55° C. oven for 60 min, scintillation fluid was added, and the radioactivity was counted on a Topcount (Packard).

Chain of human orexin 2 receptor (O43614 whole entry): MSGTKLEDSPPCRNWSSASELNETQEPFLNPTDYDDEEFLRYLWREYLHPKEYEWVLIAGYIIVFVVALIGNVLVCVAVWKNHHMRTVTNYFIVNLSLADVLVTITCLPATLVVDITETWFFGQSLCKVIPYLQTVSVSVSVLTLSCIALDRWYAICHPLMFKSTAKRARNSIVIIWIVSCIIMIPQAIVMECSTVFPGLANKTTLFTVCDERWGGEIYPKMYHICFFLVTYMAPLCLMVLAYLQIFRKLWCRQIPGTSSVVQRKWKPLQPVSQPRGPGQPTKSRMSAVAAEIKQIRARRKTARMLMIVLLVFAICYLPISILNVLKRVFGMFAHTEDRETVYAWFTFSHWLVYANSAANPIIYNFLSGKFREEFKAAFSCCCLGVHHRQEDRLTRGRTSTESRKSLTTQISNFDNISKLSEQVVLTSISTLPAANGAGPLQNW

| Structure (SMILES) | Ki (human orexin 2 receptor) | Ki (rat orexin 1 receptor) |
| --- | --- | --- |
| C[C@H]1[C@H](Nc2ccc(C(F)(F)F)cn2)CCCN1C(=O)c1cc(F)ccc1-n1nccn1 (racemic) [Example 24, (±)-trans-(5-fluoro-2-(2H-1,2,3-triazol-2-yl)phenyl)(2-methyl-3-((5-(trifluoromethyl)pyridin-2-yl)amino)piperidin-1-yl)methanone] | 324 nM |  |
| Cc1cnc(N[C@@H]2CCCN(C(=O)c3ccccc3-n3nccn3)[C@H]2C)nc1 (racemic) [Example 31, (±)-trans-(2-(2H-1,2,3-triazol-2-yl)phenyl)(2-methyl-3-((5-methylpyrimidin-2-yl)amino)piperidin-1-yl)methanone] | 508 nM |  |
| C[C@H]1[C@H](Nc2ncc3ccccc3n2)CCCN1C(=O)c1ccccc1-n1nccn1 (racemic) [Example 39, (±)-trans-(2-(2H-1,2,3-triazol-2-yl)phenyl)(2-methyl-3-(quinazolin-2-ylamino)piperidin-1-yl)methanone] | 189 nM |  |
| C[C@@H]1[C@H](Nc2nccc(-c3ccccc3)n2)CCCN1C(=O)c1ccccc1-n1nccn1 (racemic) [Example 66, (±)-cis-(2-(2H-1,2,3-triazol-2-yl)phenyl)(2-methyl-3-((4-phenylpyrimidin-2-yl)amino)piperidin-1-yl)methanone] | 1800 nM |  |
| CCOc1ccc(C)nc1C(=O)N1CCC[C@@H](Nc2ccc(C(F)(F)F)cn2)[C@@H]1C (racemic) [Example 16, (±)-trans-(3-ethoxy-6-methylpyridin-2-yl)(2-methyl-3-((5-(trifluoromethyl)pyridin-2-yl)amino)piperidin-1-yl)methanone] | 680 nM |  |
| CCOc1ccccc1C(=O)N1CCC[C@@H](Nc2nccc(-c3ccccc3)n2)[C@H]1C (racemic) [Example 68, (±)-cis-(2-ethoxyphenyl)(2-methyl-3-((4-phenylpyrimidin-2-yl)amino)piperidin-1-yl)methanone] | > 10000 nM |  |
| C[C@@H]1[C@H](Nc2cnc3ccccc3n2)CCCN1C(=O)c1ccccc1-n1nccn1 (racemic) [Example 63, (±)-cis-(2-(2H-1,2,3-triazol-2-yl)phenyl)(2-methyl-3-(quinoxalin-2-ylamino)piperidin-1-yl)methanone] | > 10000 nM |  |
| CCOc1ccccc1C(=O)N1CCC[C@@H](Nc2nccc(-c3ccccc3)n2)[C@@H]1C (racemic) [Example 53, (±)-trans-(2-ethoxyphenyl)(2-methyl-3-((4-phenylpyrimidin-2-yl)amino)piperidin-1-yl)methanone] | 58 nM |  |
| Cc1ccc(C(=O)N2CCC[C@H](Nc3ccc(C(F)(F)F)cn3)[C@H]2C)c(-n2nccn2)c1 [Example 15, (4-methyl-2-(2H-1,2,3-triazol-2-yl)phenyl)((2R,3S)-2-methyl-3-((5-(trifluoromethyl)pyridin-2-yl)amino)piperidin-1-yl)methanone] | > 10000 nM | 8200 nM |
| Cc1ccc(-c2ncccn2)c(C(=O)N2CCC[C@@H](Nc3cc(C)nc(C(F)(F)F)n3)[C@@H]2C)c1 (racemic) [Example 7, (±)-trans-(5-methyl-2-(pyrimidin-2-yl)phenyl)(2-methyl-3-((6-methyl-2-(trifluoromethyl)pyrimidin-4-yl)amino)piperidin-1-yl)methanone] | 228 nM |  |
| C[C@H]1[C@H](Nc2ccc(C(F)(F)F)cn2)CCCN1C(=O)c1ncccc1-n1nccn1 (racemic) [Example 21, (±)-trans-(3-(2H-1,2,3-triazol-2-yl)pyridin-2-yl)(2-methyl-3-((5-(trifluoromethyl)pyridin-2-yl)amino)piperidin-1-yl)methanone] | 595 nM |  |
| C[C@H]1[C@H](Nc2nccc(-c3ccccc3)n2)CCCN1C(=O)c1ccccc1-n1nccn1 (racemic) [Example 51, (±)-trans-(2-(2H-1,2,3-triazol-2-yl)phenyl)(2-methyl-3-((4-phenylpyrimidin-2-yl)amino)piperidin-1-yl)methanone] | 2100 nM |  |
| C[C@H]1[C@H](Nc2cnc3ccccc3n2)CCCN1C(=O)c1ccccc1-n1nccn1 (racemic) [Example 48, (±)-trans-(2-(2H-1,2,3-triazol-2-yl)phenyl)(2-methyl-3-(quinoxalin-2-ylamino)piperidin-1-yl)methanone] | 96 nM |  |

The remaining lines, values ahead:

| Ki (human orexin 2 receptor) | Ki (rat orexin 1 receptor) | Structure (SMILES) |
| --- | --- | --- |
| > 10000 nM | 1200 nM | CCOc1ccccc1C(=O)N1CCC[C@@H](Nc2ccc(C(F)(F)F)cn2)[C@H]1C (racemic) [Example 55, (±)-cis-(2-ethoxyphenyl)(2-methyl-3-((5-(trifluoromethyl)pyridin-2-yl)amino)piperidin-1-yl)methanone] |
| 2700 nM |  | COc1c(F)cccc1C(=O)N1CCC[C@@H](Nc2nccc(-c3ccccc3)n2)[C@@H]1C (racemic) [Example 52, (±)-trans-(3-fluoro-2-methoxyphenyl)(2-methyl-3-((4-phenylpyrimidin-2-yl)amino)piperidin-1-yl)methanone] |
| 207 nM |  | C[C@H]1[C@H](Nc2ccc(Cl)cn2)CCCN1C(=O)c1ccccc1-n1nccn1 [Example 100, (2-(2H-1,2,3-triazol-2-yl)phenyl)((2S,3R)-3-((5-chloropyridin-2-yl)amino)-2-methylpiperidin-1-yl)methanone] |
| 286 nM |  | C[C@H]1[C@H](Nc2ccc(Cl)cn2)CCCN1C(=O)c1ccccc1-n1nccn1 (racemic) [Example 32, (±)-trans-(2-(2H-1,2,3-triazol-2-yl)phenyl)(3-((5-chloropyridin-2-yl)amino)-2-methylpiperidin-1-yl)methanone] |
| 1300 nM | 1100 nM | COc1c(F)cccc1C(=O)N1CCC[C@@H](Nc2cnc3ccccc3n2)[C@H]1C (racemic) [Example 64, (±)-cis-(3-fluoro-2-methoxyphenyl)(2-methyl-3-(quinoxalin-2-ylamino)piperidin-1-yl)methanone] |
| > 10000 nM | 1800 nM | CCOc1ccccc1C(=O)N1CCC[C@@H](Nc2ccc(Br)cn2)[C@H]1C (racemic) [Example 59, (±)-cis-(3-(5-bromopyridin-2-yl)amino)-2-methylpiperidin-1-yl)(2-ethoxyphenyl)methanone] |
| > 10000 nM | 4500 nM | COc1c(F)cccc1C(=O)N1CCC[C@@H](Nc2ccc(C(F)(F)F)cn2)[C@H]1C (racemic) [Example 54, (±)-cis-(3-fluoro-2-methoxyphenyl)(2-methyl-3-((5-(trifluoromethyl)pyridin-2-yl)amino)piperidin-1-yl)methanone] |
| 5700 nM | 1800 nM | COc1c(F)cccc1C(=O)N1CCC[C@@H](Nc2nc3cc(Cl)ccc3o2)[C@H]1C (racemic) [Example 62, (±)-cis-(3-((5-chlorobenzo[d]oxazol-2-yl)amino)-2-methylpiperidin-1-yl)(3-fluoro-2-methoxyphenyl)methanone] |
| > 10000 nM |  | COc1c(F)cccc1C(=O)N1CCC[C@@H](Nc2nccc(-c3ccccc3)n2)[C@H]1C (racemic) [Example 67, (±)-cis-(3-fluoro-2-methoxyphenyl)(2-methyl-3-((4-phenylpyrimidin-2-yl)amino)piperidin-1-yl)methanone] |
| 489 nM |  | CCOc1ccccc1C(=O)N1CCC[C@@H](Nc2nc3cc(Cl)ccc3o2)[C@@H]1C (racemic) [Example 46, (±)-trans-(3-((5-chlorobenzo[d]oxazol-2-yl)amino)-2-methylpiperidin-1-yl)(2-ethoxyphenyl)methanone] |
| 1300 nM | 373 nM | COc1c(F)cccc1C(=O)N1CCC[C@@H](Nc2nc3cc(Cl)ccc3o2)[C@@H]1C (racemic) [Example 47, (±)-trans-(3-((5-chlorobenzo[d]oxazol-2-yl)amino)-2-methylpiperidin-1-yl)(3-fluoro-2-methoxyphenyl)methanone] |
| > 10000 nM | > 10000 nM | C[C@@H]1[C@H](Nc2nc3cc(Cl)ccc3o2)CCCN1C(=O)c1ccccc1-n1nccn1 (racemic) [Example 60, (±)-cis-((2-(2H-1,2,3-triazol-2-yl)phenyl)(3-((5-chlorobenzo[d]oxazol-2-yl)amino)-2-methylpiperidin-1-yl)methanone] |
| 2500 nM |  | CCOc1ccccc1C(=O)N1CCC[C@@H](Nc2nc3cc(Cl)ccc3o2)[C@H]1C (racemic) [Example 61, (±)-cis-(3-((5-chlorobenzo[d]oxazol-2-yl)amino)-2-methylpiperidin-1-yl)(2-ethoxyphenyl)methanone] |
| 700 nM | 355 nM | C[C@H]1[C@H](Nc2ccc(F)cn2)CCCN1C(=O)c1ccccc1-n1nccn1 [Example 34, (2-(2H-1,2,3-triazol-2-yl)phenyl)((2S,3R)-3-((5-fluoropyridin-2-yl)amino)-2-methylpiperidin-1-yl)methanone] |
